Reference: patent US10138273B2, “Peptide ligands for hepatic stellate cells” (The Curators of the University of Missouri, priority 2015, dated 2018)
Like-named read-outs stand apart in the source and are kept apart here. Ends that are not written are not given here.

Legend:
LX 2 cells [1] = assay: Cell viability (MTT) / apoptotic effect in LX 2 cells; type: cell-based, human
Procedure: (§1) LX 2 and HSC T6 (1×10^4 cells per well) cells were cultured in 96 well plates for 12 h in DMEM medium containing 10% FBS. The peptide 431/KLA fusion peptide, the mixture of peptide 431 and KLA peptide, and KIA peptide were incubated with the cells for 48 h. Cell viability was measured using MTT (3 (4,5 dimethylthiazol2 yi) 2,5 diphenyltetrazolium bromide) assay.
(§2) The proapoptotic peptide having the sequence of SEQ ID NO: 13, KLAKLAKKLAKLAK (KLA), is able to trigger mitochondrial disruption and induce cell death. However, the KLA peptide itself cannot enter cells to exert its proapoptotic activity. We therefore prepared a KLA/peptide 431 fusion peptide and examined its proapoptotic activity in LX 2 and HSC T6 cells.

[2] = test system: human hepatic stellate cells LX 2; assay: Cellular uptake of 5 FAM labeled peptides in LX 2 cells (flow cytometry); type: cell-based; settings: for binding affinity compared to the control peptide and other selected peptides: LX 2 cells
Procedure: (§3) We examined cellular uptake of 5 FAM labeled peptides (425, 431, and 515) in human hepatic stellate cells LX 2 upon treatment with nonenzymatic cell dissociation solution and trypsin. […] We also evaluated the effect of incubation time on cellular uptake of the peptides. 5 FAM labeled peptide 431 was incubated with LX 2 cells for different incubation time points. […] Therefore, nonenzymatic cell dissociation solution and 1 h incubation time were selected to evaluate all the peptides (420, 422, 425, 431, 504, and 515) in human hepatic stellate cells LX 2 and rat hepatic stellate cells HSC T6.

[3] = test system: rat hepatic stellate cells HSC T6; assay: Cellular uptake of 5 FAM labeled peptides in HSC T6 cells (flow cytometry); type: cell-based; settings: 1 h incubation; for binding affinity compared to the control peptide and other selected peptides: HSC T6 cells
Procedure: as §3

HSC T6 cells [4] = assay: Apparent equilibrium dissociation constant (Kd) on HSC T6 cells; type: binding, rat; settings: 5 FAM labeled peptide, 1 h at 37° C., flow cytometry
Procedure: (§4) We next measured the apparent equilibrium dissociation constants (Kd) of the peptides (422, 425, 431, and 515) to LX 2 and HSC T6 cells as shown in FIG. 10A and FIG. 10B, respectively. The cells were incubated with 5 FAM labeled peptides at different concentrations for 1 h at 37° C. The labeled cells were detected by flow cytometry, and the apparent Kd value was calculated using GraphPad Prism. […] The result is consistent with the cellular uptake result depicted in FIGS. 7A-7B, 8A-8G, and 9A-9G.

LX 2 cells [5] = assay: Serum protein binding study: uptake in LX 2 cells in media containing FBS; type: cell-based, human; settings: LX 2, OptiMEM and DMEM with FBS up to 10%
Description: It is important to evaluate the stability of peptides in the presence of serum proteins, which may nonspecifically bind to IGF2R specific peptides. As a result, we evaluated the cellular uptake of 5 FAM labeled peptide 431 in LX 2 cells in the serum reduced medium OptiMEM and DMEM media containing different concentrations of FBS.

HSC T6 cells [6] = assay: Cell viability (MTT) / apoptotic effect in HSC T6 cells; type: cell-based, rat; settings: HSC-T6, fused to peptide-431
Procedure: as §1, §2

HSC-T6 cells = assay: Cellular uptake of siRNA nanocomplexes in HSC-T6 cells; type: cell-based, rat; settings: siRNA nanocomplex modified with Peptide-431 (SNPP) versus free siRNA, SNCP, SNVP, 50 nM siRNA
Procedure: (§5) The siRNA was labeled with Alexa Flour-647, and the nanocomplexes were prepared using neutravidin as we reported before. Approximately 100,000 cells (HSC-T6, LX-2)/well were seed into 24 well plate and incubator at 37 C for 12 hrs, free siRNA and nanocomplexes (SNCP, SNVP, SNPP) were then incubated with the cells at a final siRNA concentration of 50 nM. The fluorescence intensity of the cells at different intervals was detected by FACSCalibur Flow Cytometry (BD Biosciences, Franklin Lakes, N.J.). FIG. 17A depicts an evaluation of the cellular uptake of free siRNA and the nanocomplexes in HSC-T6 cells, and FIG. 17B depicts an evaluation of the cellular uptake of free siRNA and the nanocomplexes in LX-2 cells.

LX-2 cells = assay: Cellular uptake of siRNA nanocomplexes in LX-2 cells; type: cell-based, human; settings: siRNA nanocomplex modified with Peptide-431 (SNPP) versus free siRNA, SNCP, SNVP, 50 nM siRNA
Procedure: as §5

HSCs = assay: Biodistribution of siRNA nanocomplexes in rats and rats with liver fibrosis; type: in vivo, rat; settings: siRNA modified with Peptide-431 versus other delivery systems; tail vein, 0.065 mg/kg siRNA, 2 hrs
Procedure: The siRNA was labeled with Alexa Flour-647, and the nanocomplexes were prepared using neutravidin as we reported before. The free siRNA and nanocomplexes (SNCP, SNVP, SNPP) were injected into rats by tail vein at an siRNA dose of 0.065 mg/kg. After 2 hrs, the rats were sacrificed and the major organs including the liver, heart, lung, spleen, muscle, kidney, and blood were harvested for fluorescence imaging using a Xenogen IVIS imaging system.
The siRNA was labeled with Alexa Flour-647, and the nanocomplexes were prepared using neutravidin as we reported before. Liver fibrosis was inducted by injection of CCl4. The free siRNA and nanocomplexes (SNCP, SNVP, SNPP) were injected into rats with liver fibrosis by tail vein at an siRNA dose of 0.065 mg/kg. After 2 hrs, the rats were sacrificed and the major organs including the liver, heart, lung, spleen, muscle, kidney, and blood were harvested for fluorescence imaging using a small animal imaging system (Brunker MS FX Pro). FIG. 19 depicts images evaluating the biodistribution of free siRNA and the nanocomplexes in Rats with liver fibrosis.

IGF2R [7] = target: T1, IGF2R (Homo sapiens, UniProt P11717); assay: Phage ELISA on recombinant human IGF2R protein; type: binding; design: conducted using recombinant human IGF2R extracellular domain protein (the first, third, and fifth rounds); settings: compared to peptide insertless control phage and other selected clones
Procedure: The binding affinity of the twenty-eight phages was evaluated by ELISA on recombinant human IGF2R protein. […] Additionally, the particular embodiment may include more specific aspects related to the materials and techniques employed by this method, which are described with more detail in the Experiment section below.
Twenty eight phage clones were randomly selected after the fourth and fifth rounds of biopanning and cultured in 1 mL of ER2738 bacteria (growing in early stage) at 37° C. for 4.5 h. Phage DNA was extracted, purified using the DNA clean system (Promega, Madison, Wis.), and then sequenced with an ABI Genetic Analyzer 3100 (Applied Biosystems, USA). The primer used for sequencing is SEQ ID NO: 14, 5′-CCCTCATAGTTAGCGTA ACG-3′. […] One of the phages was peptide insertless. In FIG. 3B, binding affinity of the selected phage clones encoding inserted peptides was evaluated by ELISA on recombinant human IGF2R protein.

IGF2R [8] = target: T1, IGF2R; assay: Specificity of peptide 431 to IGF2R: uptake in IGF2R-silenced LX 2 cells; type: cell-based; design: the expression of IGF2R in LX 2 cells was silenced using siRNA; endogenous in cells; host or cells: LX-2 human hepatic stellate cells; settings: for cellular uptake after silencing IGF2R with siRNA: LX 2, IGF2R siRNA versus scrambled siRNA
Procedure: In addition to affinity, we also evaluated the specificity of peptide 431 to IGF2R in LX 2 cells. For this purpose, the expression of IGF2R in LX 2 cells was silenced using siRNA As shown in FIGS. 11A-11B, the IGF2R siRNA (10 and 50 nM) dramatically knocked down the expression of IGF2R in LX 2 cells at the mRNA and protein levels.

LX 2 cells [9] = assay: Apparent equilibrium dissociation constant (Kd) on LX 2 cells; type: binding, human
Procedure: as §4
In order to improve the binding affinity of peptide 431, […] may have the molecular structure depicted in FIG. 16A. Affinity of the dimeric peptide 431 was evaluated in LX 2 cells as described above.

KLAKLAKKLAKLAK (proapoptotic peptide) [KLA peptide, reference compound]
apoptotic activity / cell death (LX 2 cells [1]; LX 2, 48 h, MTT): did not exhibit apoptotic activity

VHWDFRQWWQPS [Peptide-431, IGF2R-specific peptide ligand encoded by phage 431]
cellular uptake ([2]; 5 FAM labeled peptide, nonenzymatic cell dissociation solution, 1 h incubation, LX 2): 62% | effect of incubation time on cellular uptake ([2]; LX 2, different incubation time points): time dependent increase | binding affinity compared to the control peptide and other selected peptides ([2]; 1 h incubation): highest binding affinity | binding affinity compared to the control peptide and other selected peptides ([2]; 1 h incubation, listed as Phage No. 431): greatest binding affinity | effect of cell detachment method on cellular uptake ([2]; nonenzymatic cell dissociation solution versus trypsin, LX 2): higher cellular uptake in nonenzymatic cell dissociation solution | cellular uptake ([3]; 5 FAM labeled peptide, nonenzymatic cell dissociation solution, HSC T6): 12% | binding affinity compared to the control peptide and other selected peptides [3]: highest binding affinity | binding affinity compared to the control peptide and other selected peptides ([3]; listed as Phage No. 431): greatest binding affinity | Kd (HSC T6 cells [4]): 12.3 µM | cellular uptake in presence of FBS (LX 2 cells [5]): not significantly affected | uptake of proapoptotic KLA peptide (LX 2 cells [1]; LX-2, fused to peptide-431): enhances the uptake | uptake of proapoptotic KLA peptide (HSC T6 cells [6]): enhances the uptake | cellular uptake of siRNA (HSC-T6 cells): highest cellular uptake of siRNA | cellular uptake of siRNA (LX-2 cells): highest cellular uptake of siRNA | specificity for HSCs (biodistribution) (HSCs): highest specificity for HSCs | binding affinity to recombinant human IGF2R protein (phage ELISA) (IGF2R [7]): highest binding affinity | binding affinity to recombinant human IGF2R protein (phage ELISA) (IGF2R [7]; listed as peptide-431): highest binding affinity and specificity | cellular uptake after silencing IGF2R with siRNA (IGF2R [8]; listed as peptide 431): lower uptake | cellular uptake after silencing IGF2R with siRNA (IGF2R [8]; listed as peptide-431): significantly reduced | specificity to IGF2R on LX 2 cells (IGF2R [8]; concluded from IGF2R silencing): high specificity

dimeric peptide 431: dimer of Peptide-431 linked via a lysine, imaging agent coupled to the linker (FIG. 16A) (VHWDFRQWWQPS; also: dimer of two peptide chains linked via a lysine, imaging agent coupled to the linker)
improvement of binding affinity (Kd) of dimer compared to monomeric peptide 431 (LX 2 cells [9]): approximately 9 fold | improvement of binding affinity (Kd) of dimer compared to monomeric peptide 431 (LX 2 cells [9]; listed as Dimerization of peptide-431): approximately 9 fold
